ChEMBL document CHEMBL3244033, “Potential antitumor agents. 21. Dialkanolamine dialkanesulfonic esters” (J Med Chem, 1977)

Tests used:
L1210 = assay: Antileukemic activity against mouse L1210 cells allografted in ip dosed C3H/HeJ female X DBA2/J male F1 hybrid mouse assessed as maximal increase in host life span at LD10 administered as single dose 24 hrs after tumor implantation; type: functional
Mus musculus = assay: Acute toxicity in ip dosed C3H/HeJ female X DBA2/J male F1 hybrid mouse allografted with mouse L1210 cells assessed as mortality administered as single dose; type: organism-based; details: in vivo
[1] = Lipophilic-hydrophilic balance, Rm of the compound using mixture of glycerol, i-BuOH and 1-pentanol plus methanesulfonic acid as solvent system by acidic reversed-phase chromatography; type: physicochemical
[2] = Dissociation constant, pKa of the compound; type: physicochemical

| SMILES | Activity (L1210) | LD10 (Mus musculus) | Rm [1] | pKa [2] |
| --- | --- | --- | --- | --- |
| CS(=O)(=O)OCCCNCCCOS(C)(=O)=O.Cl | 84% | 170 mg/kg | -0.88 | 8.77 |
| CS(=O)(=O)OCCNCCOS(C)(=O)=O.Cl | >25% | 25 mg/kg | -1.13 |  |
| CCS(=O)(=O)OCCNCCOS(=O)(=O)CC.Cl | 26% | 35 mg/kg | -0.64 |  |
| CCCS(=O)(=O)OCCNCCOS(=O)(=O)CCC.Cl | 57% | 210 mg/kg | -0.1 |  |
| CCCCS(=O)(=O)OCCNCCOS(=O)(=O)CCCC.Cl | 105% | 750 mg/kg | 0.37 |  |
| CCCCCS(=O)(=O)OCCNCCOS(=O)(=O)CCCCC.Cl | 78% | 520 mg/kg | 0.76 |  |
| CCS(=O)(=O)OCCCNCCCOS(=O)(=O)CC.Cl | 100% | 410 mg/kg | -0.47 |  |
| CCCS(=O)(=O)OCCCNCCCOS(=O)(=O)CCC.Cl | 75% | 285 mg/kg | 0.09 |  |
| CCCCS(=O)(=O)OCCCNCCCOS(=O)(=O)CCCC.Cl |  |  | 0.45 |  |
| CS(=O)(=O)OCCCCCCNCCOS(C)(=O)=O.Cl | 91% | 185 mg/kg | -0.71 |  |
| CCS(=O)(=O)OCCCCCCNCCOS(=O)(=O)CC.Cl | 83% | 285 mg/kg | -0.19 |  |
| CCCS(=O)(=O)OCCCCCCNCCOS(=O)(=O)CCC.Cl | 59% | 225 mg/kg | 0.27 |  |
| CCCCS(=O)(=O)OCCNCCCCCCOS(=O)(=O)CCC.Cl | 35% | 200 mg/kg | 0.51 |  |
| CS(=O)(=O)OCCCCCCNCCCOS(C)(=O)=O.Cl | 107% | 33 mg/kg | -0.65 |  |
| CCS(=O)(=O)OCCCCCCNCCCOS(=O)(=O)CC.Cl | 78% | 61 mg/kg | -0.05 |  |
| CCCS(=O)(=O)OCCCCCCNCCCOS(=O)(=O)CCC.Cl | 45% | 137 mg/kg | 0.32 |  |
